Data on 17 compounds can be found in article PMC9128806 (Journal of medicinal chemistry, 2021).

The test system of series [1] is human leukemia EU-1 cell line. Put plainly: WST antiproliferative/cytotoxicity assay, EU-1. The series is classed as cell-based. Particulars: for fold drop in potency, para to meta position: 16 vs 13, 17 vs 14; for fold increased potency compared to 2: para-ester replaced by acetyl or isobutyryl.
Series [2] concerns the target T1, MDM2 (Homo sapiens, UniProt Q00987). Kind of series: MDM2 binding. Particulars: subsequent mechanistic studies, no data shown.
Series [3] has as its target T1, MDM2. Put plainly: Western blot, MDM2 expression in EU-1 cells. The series is classed as cell-based.
The test system of series [4] is XIAP. Kind of series: Western blot, XIAP expression in EU-1 cells. The class given is cell-based, human. Particulars: dose-dependent.
In series [5] the test system is NB cell lines (NB-1643, SHEP1, and LA1–55N). Put plainly: WST cytotoxicity assay, NB cell lines. The class given is cell-based. Particulars: Homo sapiens, 48 h.
Series [6] relates to p53, p21 and PUMA. Put plainly: Western blot, p53 and its targets p21 and PUMA. The class given is cell-based, human. Particulars: EU-1 cells; accompanying MDM2 downregulation.
The subject of series [7] is ALL cell lines (EU-1 and EU-3). Put plainly: WST cytotoxicity assay, ALL cell lines. The class given is cell-based. Particulars: Homo sapiens, 48 h.
The subject of series [8] is human normal bone marrow mononuclear (NBMM) cells. Kind of series: Clonogenic assays for CFU-GM and BFU-E. The series is classed as cell-based. Particulars: 1 μM, colonies counted after 14 days, vs control.
The conditions of series [9]: mice; cited from earlier work.

Molecules are shown by their SMILES.

T1 sequence (Q00987 whole entry): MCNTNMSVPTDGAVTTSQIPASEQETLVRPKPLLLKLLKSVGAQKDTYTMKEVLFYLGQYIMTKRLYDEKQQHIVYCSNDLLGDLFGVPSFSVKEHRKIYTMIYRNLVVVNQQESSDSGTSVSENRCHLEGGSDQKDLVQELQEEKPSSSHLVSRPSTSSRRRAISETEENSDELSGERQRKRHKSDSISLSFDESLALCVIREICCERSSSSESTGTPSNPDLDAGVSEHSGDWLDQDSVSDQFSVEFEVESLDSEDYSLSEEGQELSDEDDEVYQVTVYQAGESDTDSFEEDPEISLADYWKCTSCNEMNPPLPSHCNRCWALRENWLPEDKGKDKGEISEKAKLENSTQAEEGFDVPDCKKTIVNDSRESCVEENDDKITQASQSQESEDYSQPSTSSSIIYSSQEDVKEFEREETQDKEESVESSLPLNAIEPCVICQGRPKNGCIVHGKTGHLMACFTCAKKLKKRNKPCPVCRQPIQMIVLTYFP

Consider `Cc1ccc(N(C)S(=O)(=O)c2ccc3c(c2)C2OCCC2C(c2ccc(C(=O)C(C)C)cc2)N3C)cc1C` (stereo not drawn) [Compound 45, N-(3,4-Dimethylphenyl)-4-(4-isobutyrylphenyl)-N,5-dimethyl-2,3,3a,4,5,9b-hexahydrofuro[3,2-c]quinoline-8-sulfonamide], for which, in series [1] (EU-1 IC50 ratio), the “fold decreased potency compared to 14” value came to 2 fold.

In the case of `Cc1ccc(N(C)S(=O)(=O)c2ccc3c(c2)C2OCCC2C(c2ccc(C(=O)C(C)C)cc2)N3)cc1C` (stereo not drawn) [Compound 46, N-(3,4-Dimethylphenyl)-4-(4-isobutyrylphenyl)-N-methyl-2,3,3a,4,5,9b-hexahydrofuro[3,2-c]quinoline-8-sulfonamide], in series [1] (EU-1 IC50 ratio), the “fold decreased potency compared to 14” value worked out at 3 fold. For the compound `Cc1ccc(NS(=O)(=O)c2ccc3c(c2)C2C=CCC2C(c2ccc(C(=O)C(C)C)cc2)N3)cc1C` (stereo not drawn) [Compound 27, N-(3,4-Dimethylphenyl)-4-(4-isobutyrylphenyl)-3a,4,5,9b-tetrahydro-3H-cyclopenta[c]quinoline-8-sulfonamide], the “fold decreased potency compared to 14” value in series [1] (EU-1 IC50 ratio) was 5 fold. With `Cc1ccc(NS(=O)(=O)c2ccc3c(c2)C2OCCC2C(c2ccc(C(=O)C4CCCCC4)cc2)N3)cc1C` (stereo not drawn) [Compound 25, 4-(4-(Cyclohexanecarbonyl)phenyl)-N-(3,4-dimethylphenyl)-2,3,3a,4,5,9b-hexahydrofuro[3,2-c]quinoline-8-sulfonamide], the “fold decreased potency compared to 14” value in series [1] (EU-1 IC50 ratio) is given as “approximately 6 fold”. As to `Cc1ccc(NS(=O)(=O)c2ccc3c(c2)C2NCCC2C(c2ccc(C(=O)C(C)C)cc2)N3)cc1C` (stereo not drawn) [Compound 30, N-(3,4-Dimethylphenyl)-4-(4-isobutyrylphenyl)-2,3,3a,4,5,9b-hexahydro-1H-pyrrolo[3,2-c]quinoline-8-sulfonamide], the “fold decreased potency compared to 14” value in series [1] (EU-1 IC50 ratio) is given as 6 fold. `CC(=O)c1cccc(C2Nc3ccc(S(=O)(=O)Nc4ccc(C)c(C)c4)cc3C3OCCC23)c1` (stereo not drawn) [Compound 16, 4-(3-Acetylphenyl)-N-(3,4-dimethylphenyl)-2,3,3a,4,5,9b-hexahydrofuro[3,2-c]quinoline-8-sulfonamide]: the “fold drop in potency, para to meta position” value in series [1] came to 4 fold.

With `CC(=O)c1ccc(C2Nc3ccc(S(=O)(=O)Nc4ccc(C)c(C)c4)cc3C3OCCC23)cc1` (stereo not drawn) [Compound 13, 4-(4-Acetylphenyl)-N-(3,4-dimethylphenyl)-2,3,3a,4,5,9b-hexahydrofuro[3,2-c]quinoline-8-sulfonamide], the “binding to the MDM2 target” value in series [2] is recorded as “does not bind to the MDM2 target”. Moreover, in series [1], the “fold increased potency compared to 2” value is “approximately 4 fold”. For `Cc1ccc(NS(=O)(=O)c2ccc3c(c2)[C@H]2OCC[C@H]2[C@@H](c2ccc(C(=O)C(C)C)cc2)N3)cc1C` [Compound 14d, (3aS,4S,9bS)-N-(3,4-Dimethylphenyl)-4-(4-isobutyrylphenyl)-2,3,3a,4,5,9b-hexahydrofuro[3,2-c]quinoline-8-sulfonamide], in [1] (14d vs 14a–c), the “fold higher potency compared to the other three isomers” value was 5- to 8 fold.

Consider `Cc1ccc(NS(=O)(=O)c2ccc3c(c2)C2CCCC2C(c2ccc(C(=O)C(C)C)cc2)N3)cc1C` (stereo not drawn) [Compound 28, N-(3,4-Dimethylphenyl)-4-(4-isobutyrylphenyl)-2,3,3a,4,5,9b-hexahydro-1H-cyclopenta[c]quinoline-8-sulfonamide], for which the “fold drop in potency compared to 27” value in [1] (saturation of cyclopentene double bond) is given as “approximately 3 fold”. For `Cc1ccc(NS(=O)(=O)c2ccc3c(c2Cl)C2C=CCC2C(c2ccc(S(C)(=O)=O)cc2)N3)cc1C` (stereo not drawn) [Compound 44, 9-Chloro-N-(3,4-dimethylphenyl)-4-(4-(methylsulfonyl)phenyl)-3a,4,5,9b-tetrahydro-3H-cyclopenta[c]quinolone-8-sulfonamide], the “fold less potent than parent compound 42” value in [1] (EU-1 IC50 ratio) is “approximately 6 fold”.

As to `Cc1ccc(NS(=O)(=O)c2ccc3c(c2)C2OCCC2C(c2ccc(C(=O)C4CC4)cc2)N3)cc1C` (stereo not drawn) [Compound 22, 4-(4-(Cyclopropanecarbonyl)phenyl)-N-(3,4-dimethylphenyl)-2,3,3a,4,5,9b-hexahydrofuro[3,2-c]quinoline-8-sulfonamide], the “fold decreased potency compared to 14” value in [1] (EU-1 IC50 ratio) worked out at 10 fold. In the case of `Cc1ccc(NS(=O)(=O)c2ccc3c(c2)C2OCCC2C(c2ccc(C(=O)C(C)C)cc2)N3)cc1C` (stereo not drawn) [Compound 14, N-(3,4-Dimethylphenyl)-4-(4-isobutyrylphenyl)-2,3,3a,4,5,9b-hexahydrofuro[3,2-c]quinoline-8-sulfonamide], in series [3] (MDM2 and XIAP), the “time after treatment at which downregulation of MDM2 and XIAP occurred” value lay in the range of 2 to 4 h. The MDM2 expression entry in [3] (dose-dependent) is reported as “remarkable downregulation”. Moreover, the XIAP expression result in series [4] is “remarkable downregulation”. Besides, the “fold increased potency compared to 2” value in [1] was “approximately 4 fold”. Besides, the IC50 lay in the range of 500 to 1200 nM in [5] and 300 to 400 nM in series [7]. Further, the p53 expression result in series [6] is given as “increased expression of p53”.

As to `Cc1ccc(NS(=O)(=O)c2ccc3c(c2)C2OCCC2C(c2ccc(C(=O)c4ccccc4)cc2)N3)cc1C` (stereo not drawn) [Compound 26, 4-(4-Benzoylphenyl)-N-(3,4-dimethylphenyl)-2,3,3a,4,5,9b-hexahydrofuro[3,2-c]quinoline-8-sulfonamide], the “fold decreased potency compared to 14” value in [1] (EU-1 IC50 ratio) is reported as “approximately 6 fold”. With `Cc1ccc(NS(=O)(=O)c2ccc3c(c2)C2OCCC2C(c2ccc(C(O)C(C)C)cc2)N3)cc1C` (stereo not drawn) [Compound 15, N-(3,4-Dimethylphenyl)-4-(4-(1-hydroxy-2-methylpropyl)phenyl)-2,3,3a,4,5,9b-hexahydrofuro[3,2-c]-quinoline-8-sulfonamide], the “fold decreased potency compared to 14” value in series [1] (EU-1 IC50 ratio) is reported as “approximately 4 fold”.

For the compound `COc1cccc2c1C(=O)c1c(O)c3c(c(O)c1C2=O)C[C@@](O)(C(=O)CO)C[C@@H]3O[C@H]1C[C@H](N)[C@H](O)[C@H](C)O1` [Dox, doxorubicin], the “CFU-GM and BFU-E colony numbers and size” value in series [8] is “significantly reduced”. Take `Cc1ccc(NS(=O)(=O)c2ccc3c(c2)C2OCCC2C(c2cccc(C(=O)C(C)C)c2)N3)cc1C` (stereo not drawn) [Compound 17, N-(3,4-Dimethylphenyl)-4-(3-isobutyrylphenyl)-2,3,3a,4,5,9b-hexahydrofuro[3,2-c]quinoline-8-sulfonamide]: in series [1], the “fold drop in potency, para to meta position” value was found to be 7 fold. Turning to `Cc1ccc(NS(=O)(=O)c2ccc3c(c2)C2C=CCC2C(c2ccc(C(=O)O)cc2)N3)cc1C` (stereo not drawn) [MX69], in [9], the tolerability result is “well tolerated”.
